From patent publication US20260317319A1, “NOVEL ERGOLINES AND METHODS OF TREATING MOOD DISORDERS” (Gilgamesh Pharma Inc., priority 2023, published 2026)
Entries after “also recorded” stand apart in the source; their conditions may differ. Where two headings read alike, the source gives them in different places.

What was measured:
[1] = molecular target: T1, Alpha1A adrenergic receptor (Homo sapiens, UniProt P35348); assay: Ca2+ flux functional assay at Alpha1A; type: cell-based; conditions: for maximal efficacy at Alpha1A: "higher" is compared to the N-methyl compound LSD; for Emax: agonist, Ca2+ flux, max dose, read-out: Alpha 1A % Act @ Max Dose
T1 construct: expressed in transfected cells
T1 sequence (P35348 1-466): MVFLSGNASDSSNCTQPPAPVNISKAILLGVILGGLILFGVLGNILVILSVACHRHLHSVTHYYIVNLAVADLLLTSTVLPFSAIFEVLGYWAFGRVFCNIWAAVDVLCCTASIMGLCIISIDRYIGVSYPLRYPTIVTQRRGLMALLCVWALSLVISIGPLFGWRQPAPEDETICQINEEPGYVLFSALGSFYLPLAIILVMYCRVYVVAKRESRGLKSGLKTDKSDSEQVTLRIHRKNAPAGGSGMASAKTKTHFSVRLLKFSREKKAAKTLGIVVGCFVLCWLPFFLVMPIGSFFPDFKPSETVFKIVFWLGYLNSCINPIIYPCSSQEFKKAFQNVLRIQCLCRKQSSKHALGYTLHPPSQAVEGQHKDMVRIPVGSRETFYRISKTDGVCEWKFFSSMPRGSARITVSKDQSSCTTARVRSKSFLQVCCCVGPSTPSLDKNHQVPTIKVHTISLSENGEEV
Method: Disclosed compounds were tested for agonist activity at several adrenergic (Alpha1A and Alpha2A) and dopamine (D1 and D2) receptor subtypes using Ca^2+ flux functional assays, with the results summarized in Table 6. Selectivity for the 5-HT2A receptor over these other targets varied depending on the specific target and compound.
Functional Assays at Adrenergic and Dopamine Receptors. Agonist activity at Alpha1A, Alpha2A, D1, and D2 receptors was determined using a FLIPR Ca^2+ flux assay at WuXi AppTec (Hong Kong) Limited according to their standard protocols. Briefly, stably transfected cells expressing the receptor of interest were grown and plated in a 384 well plate and incubated at 37° C. and 5% CO2 overnight. A solution of 250 mM probenecid in 1 mL FLIPR assay buffer was prepared fresh. This was combined with a fluorescent dye (Fluo-4 Direct™) to make a final assay concentration of 2.5 mM. Compounds were diluted 1:3.16 for 10 points and 750 nL was added to a 384 well compound plate using ECHO along with 30 μL assay buffer. The fluorescent dye was then added to the assay plate along with assay buffer to a final volume of 40 μL. The cell plate was incubated for 50 min at 37° C. and 5% CO2 and placed into the FLIPR Tetra along with the compound plate. 10 μL of references and compounds were then transferred from the compound plate into the cell plate and the fluorescent signal was read.

[2] = system: Sprague Dawley rats; assay: Forced swim test (FST) in rats; type: in vivo, rat; conditions: for Time Immobile: rat FST, 10% DMSO in saline; for Time Immobile / effect on immobility in FST: 23.5 hours after a single dose; for effect on immobility in FST: rat
Method: Compound 1 induced antidepressant-like effects in the forced swim test (FST) in rats with a 23.5-h pre-treatment time (FIG. 2).
Animals. Male Sprague Dawley rats, aged 9-10 weeks, were used in this experiment. Animals were housed in groups of 2 under controlled temperature (22±3° C.) and relative humidity (30-70%) conditions, with 12-hour light/dark cycles, and with ad libitum food and water. This study was carried out in strict accordance with the requirements of the Committee for the Purpose of Control and Supervision of Experiments on Animals (CPCSEA), India. All efforts were made to minimize suffering.
Forced Swim Test (FST). […] Rats were handled for about 2 min daily for the 5 days prior to the beginning of the experimental procedure. On the first day of the experiment (i.e., Day 0), post randomization, training swim sessions (Swim 1) were conducted between 12:00 and 18:00 h with all animals by placing rats in individual glass cylinders (46 cm tall×20 cm in diameter) containing 23-25° C. water 30 cm deep for 15 minutes. At the conclusion of Swim 1, animals were dried with paper towels, placed in heated drying cages for 15 minutes, and then returned to their home cages. Animals were then administered the appropriate drug or vehicle treatment(s), as described above. For clarity, a compound administration time of 23.5 h before Swim 2 means 0.5 h after the start of Swim 1 and 0.25 h after the completion of Swim 1 (i.e., immediately after return to the home cage). On Day 1 (i.e., 24 h after start of Swim 1), animals performed the test swim (Swim 2) for a period of 5 min but otherwise under the same conditions as Swim 1. During all swim sessions, the water was changed between each animal.
Behavioral scoring was conducted by observers who were blind to the treatment groups. Animals were continuously observed during Swim 2 and the total time spent engaging in the following behaviors was recorded: immobile, swimming, and climbing. A rat was judged to be immobile when it remained floating in the water without struggling and was making only those movements necessary to keep its head above water. A rat was judged to be swimming when it made active swimming motions, more than necessary to merely maintain its head above water (e.g., moving around in the cylinder). A rat was judged to be climbing when it made active movements with its forepaws in and out of the water, usually directed against the walls.
Statistical Analysis. The data points shown represent the mean±standard error of the mean (SEM). Analysis was performed using GraphPad Prism 6. Comparisons between groups were performed using the one-way analysis of variance (ANOVA), followed by Dunnett's test for comparisons to vehicle.
Additional disclosed compounds were tested in the forced swim test (FST) in rats according to the procedure described in Example 58 (compounds 18 and 19 administered in 10% DMSO in saline).

[3] = molecular target: T2, 5-HT2C receptor (Homo sapiens, UniProt P28335); assay: cell-based; conditions: for Emax: read-out: 5-HT2C % Act @ Max Dose; for EC50: read-out: 5-HT2C EC50
T2 sequence (P28335 33-458): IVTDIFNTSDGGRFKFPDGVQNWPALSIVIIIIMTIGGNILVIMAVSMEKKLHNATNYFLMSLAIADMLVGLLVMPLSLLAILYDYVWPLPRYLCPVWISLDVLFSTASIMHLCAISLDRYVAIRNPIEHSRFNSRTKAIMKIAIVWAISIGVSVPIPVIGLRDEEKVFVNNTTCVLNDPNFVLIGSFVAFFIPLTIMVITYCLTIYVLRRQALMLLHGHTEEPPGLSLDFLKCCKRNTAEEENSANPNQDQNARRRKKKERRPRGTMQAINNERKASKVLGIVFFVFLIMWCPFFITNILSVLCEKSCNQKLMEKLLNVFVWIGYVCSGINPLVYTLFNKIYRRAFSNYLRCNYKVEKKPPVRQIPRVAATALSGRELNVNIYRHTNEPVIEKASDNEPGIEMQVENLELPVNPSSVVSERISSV

[4] = molecular target: T3, 5-HT2B receptor (Homo sapiens, UniProt P41595); assay: 5-HT2B receptor radioligand binding ([3H]LSD); conditions: read-out: 5-HT2B Receptor Ki
T3 construct: expressed in transfected cells; host or cells: HEK293, stably transfected

[5] = agonist, Ca2+ flux, Eurofins DiscoverX protocol, max dose
[6] = agonist, Ca2+ flux, Eurofins DiscoverX protocol

T3 sequence (P41595 whole entry): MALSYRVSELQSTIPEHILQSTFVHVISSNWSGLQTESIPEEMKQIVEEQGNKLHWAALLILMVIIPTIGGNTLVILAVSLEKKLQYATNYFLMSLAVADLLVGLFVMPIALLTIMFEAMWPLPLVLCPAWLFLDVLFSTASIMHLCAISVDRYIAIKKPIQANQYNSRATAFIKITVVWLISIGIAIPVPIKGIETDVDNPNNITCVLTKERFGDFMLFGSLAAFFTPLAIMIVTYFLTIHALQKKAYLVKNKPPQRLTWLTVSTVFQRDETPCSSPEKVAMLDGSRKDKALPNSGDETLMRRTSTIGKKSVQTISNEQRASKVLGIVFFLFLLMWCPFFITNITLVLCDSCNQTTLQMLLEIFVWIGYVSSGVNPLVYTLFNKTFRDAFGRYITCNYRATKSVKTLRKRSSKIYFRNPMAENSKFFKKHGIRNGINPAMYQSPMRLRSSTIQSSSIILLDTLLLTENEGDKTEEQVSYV

Row | Compound | maximal efficacy at Alpha1A [1] | Emax [1] [%] | Emax [3, 5] [%] | Ki [4] [µM] | other results
1 | CCCN1C[C@H](C(=O)N(CC)CC)C=C2c3cccc4[nH]cc(c34)C[C@H]21 [Compound 1, (6aR,9R)—N,N-diethyl-7-propyl-4,6,6a,7,8,9-hexahydroindolo[4,3-fg]quinoline-9-carboxamide] | substantially higher maximal efficacy | 80.6 | 107 | – | immobility time in FST ([2]; highest dose, 23.5 h pre-treatment, relative to vehicle control, FIG. 2): reduced immobility time relative to vehicle control
2 | CCN(CC)C(=O)[C@@H]1C=C2c3cccc4[nH]cc(c34)C[C@H]2N(CCCF)C1 [Compound 2, (6aR,9R)—N,N-diethyl-7-(3-fluoropropyl)-4,6,6a,7,8,9-hexahydroindolo[4,3-fg]quinoline-9-carboxamide] | substantially higher maximal efficacy | 110 | 105 | – | –
3 | CCCN1C[C@H](C(=O)N[C@H](C)CC)C=C2c3cccc4[nH]cc(c34)C[C@H]21 [Compound 3, (6aR,9R)—N—((R)-sec-butyl)-7-propyl-4,6,6a,7,8,9-hexahydroindolo[4,3-fg]quinoline-9-carboxamide] | substantially higher maximal efficacy | 125 | 119 | – | –
4 | CCCN1C[C@H](C(=O)N2[C@@H](C)C[C@@H]2C)C=C2c3cccc4[nH]cc(c34)C[C@H]21 [Compound 4, ((2S,4S)-2,4-dimethylazetidin-1-yl)((6aR,9R)-7-propyl-4,6,6a,7,8,9-hexahydroindolo[4,3-fg]quinolin-9-yl)methanone] | substantially higher maximal efficacy | 119 | 111 | – | –
5 | CCCN1C[C@H](C(=O)NC(CC)CC)C=C2c3cccc4[nH]cc(c34)C[C@H]21 [Compound 6, (6aR,9R)—N-(pentan-3-yl)-7-propyl-4,6,6a,7,8,9-hexahydroindolo[4,3-fg]quinoline-9-carboxamide] | substantially higher maximal efficacy | – | 117 | – | –
6 | C=CCN1C[C@H](C(=O)N[C@H](C)CC)C=C2c3cccc4[nH]cc(c34)C[C@H]21 [Compound 8, (6aR,9R)-7-allyl-N—((R)-sec-butyl)-4,6,6a,7,8,9-hexahydroindolo[4,3-fg]quinoline-9-carboxamide] | – | – | 108 | – | –
7 | CCN(CC)C(=O)[C@@H]1C=C2c3cccc4[nH]cc(c34)C[C@H]2N(Cc2ccccc2OC)C1 [Compound 10, (6aR,9R)—N,N-diethyl-7-(2-methoxybenzyl)-4,6,6a,7,8,9-hexahydroindolo[4,3-fg]quinoline-9-carboxamide] | very low efficacy agonists | 26.6 | 13.4 | – | –
8 | CCN(CC)C(=O)[C@@H]1C=C2c3cccc4[nH]cc(c34)C[C@H]2N(CCc2ccccc2OC)C1 [Compound 11, (6aR,9R)—N,N-diethyl-7-(2-methoxyphenethyl)-4,6,6,7,8,9-hexahydroindolo[4,3-fg]quinoline-9-carboxamide] | very low efficacy agonists | – | – | – | –
9 | CCN(CC)C(=O)[C@@H]1C=C2c3cccc4[nH]cc(c34)C[C@H]2N(Cc2cccc(OC)c2)C1 [Compound 18, (6aR,9R)—N,N-diethyl-7-(3-methoxybenzyl)-4,6,6a,7,8,9-hexahydroindolo[4,3-fg]quinoline-9-carboxamide] | – | – | 7.28 | 0.188 | Time Immobile ([2]; 0.1 mg/kg SC): 56.7 s; Time Immobile ([2]; 0.32 mg/kg SC): 61.2 s; effect on immobility in FST [2]: maximal effects equivalent to hallucinogenic compounds and the positive control; EC50 [3, 6]: > 10 µM
10 | CCN(CC)C(=O)[C@@H]1C=C2c3cccc4[nH]cc(c34)C[C@H]2N(Cc2ccc(OC)cc2)C1 [Compound 19, (6aR,9R)—N,N-diethyl-7-(4-methoxybenzyl)-4,6,6a,7,8,9-hexahydroindolo[4,3-fg]quinoline-9-carboxamide] | – | – | 1.7 | 0.225 | Time Immobile ([2]; 0.1 mg/kg SC): 76.4 s; Time Immobile ([2]; 0.32 mg/kg SC): 79.2 s; Time Immobile ([2]; 1 mg/kg SC): 96.0 s; Time Immobile ([2]; 3.2 mg/kg SC): 166.5 s; effect on immobility in FST [2]: maximal effects equivalent to hallucinogenic compounds and the positive control; also recorded: apparent therapeutic action of compound 19 decreased at higher doses; EC50 [3, 6]: > 10 µM
11 | CCN(CC)C(=O)[C@@H]1C=C2c3cccc4[nH]cc(c34)C[C@H]2N(Cc2ccc(F)cc2)C1 [Compound 49, (6aR,9R)—N,N-diethyl-7-(4-fluorobenzyl)-4,6,6a,7,8,9-hexahydroindolo[4,3-fg]quinoline-9-carboxamide] | – | – | – | 0.0169 | –
12 | CCN(CC)C(=O)[C@@H]1C=C2c3cccc4[nH]cc(c34)C[C@H]2N(Cc2ccc(Cl)cc2)C1 [Compound 50, (6aR,9R)-7-(4-chlorobenzyl)-N,N-diethyl-4,6,6a,7,8,9-hexahydroindolo[4,3-fg]quinoline-9-carboxamide] | – | – | – | 0.0537 | –
13 | CCN(C)C(=O)[C@@H]1C=C2c3cccc4[nH]cc(c34)C[C@H]2N(Cc2ccccc2)C1 [Compound 85, (6aR,9R)-7-benzyl-N-ethyl-N-methyl-4,6,6a,7,8,9-hexahydroindolo[4,3-fg]quinoline-9-carboxamide] | – | – | – | 0.0324 | –
14 | CC[C@@H](C)NC(=O)[C@@H]1C=C2c3cccc4[nH]cc(c34)C[C@H]2N(C)C1 [Int8] | – | – | – | – | Emax [3]: 98.2%
15 | CCN(CC)C(=O)[C@@H]1C=C2c3cccc4[nH]cc(c34)C[C@H]2N(C)C1 [LSD, lysergic acid diethylamide, reference compound] | – | 60.3 | – | – | –
